From patent publication US20100222334A1 (priority 2007, published 2010)

Experiments:
[1] = human, in vivo
Protocol: In order to determine the relative bioavailability, an open-label, single dose, two-period, crossover study is conducted in 24 healthy subjects.

[2] = administered as immediate release tablet formulation (Diovan); cited from earlier work
[3] = Bioavailability of new 80 mg valsartan pediatric tablet relative to 80 mg commercial tablet, single-dose crossover; details: in the same study
Protocol: The study is conducted in 24 healthy subjects using an open-label, single-dose, two period, randomized, crossover study design.

intersubject variability (CV %) for the Cmax and AUCτ [1]: 24-40% | variability of valsartan PK [3]: 30-50%
Compound: CCCCC(=O)N(Cc1ccc(-c2ccccc2-c2nnn[nH]2)cc1)[C@H](C(=O)O)C(C)C [Valsartan, (S)—N-(1-carboxy-2-methylprop-1-yl)-N-pentanoyl-N-[2′-(1H-tetrazol-5-yl)biphenyl-4-ylmethyl]amine]
bioavailability [2]: around 30%
